Laboratory results published in patent publication US8796180B2, “Aminoquinazoline compounds for combating invertebrate pests” (BASF SE, priority 2009, dated 2014).

Key:
Assay type in all cases: in vivo
[1] = system: Southern Armyworm (Spodoptera eridania, 2nd instar larvae); experiment: Southern Armyworm foliar spray test on lima bean plants (B.1); conditions: 96 h, assessed 4 days after treatment, read-out: mortality in comparison with untreated controls
Description: B.1 Southern Armyworm (Spodoptera eridania, 2nd instar larvae)
The active compounds were formulated in cyclohexanone as a 10,0000 ppm solution supplied in 1.3 ml ABgene® tubes. These tubes were inserted into an automated electrostatic sprayer equipped with an atomizing nozzle and they served as stock solutions for which lower dilutions were made in 50% acetone: 50% water (v/v). A nonionic surfactant (Kinetic®) was included in the solution at a volume of 0.01% (v/v). Lima bean plants (variety Sieva) were grown 2 plants to a pot and selected for treatment at the 1st true leaf stage. Test solutions were sprayed onto the foliage by an automated electrostatic plant sprayer equipped with an atomizing spray nozzle. The plants were dried in the sprayer fume hood and then removed from the sprayer. Each pot was placed into perforated plastic bags with a zip closure. Ten to 11 armyworm larvae were placed into the bag and the bags zipped closed. Test plants were maintained in a growth room at 25° C. and 20-40% relative humidity for 4 days, avoiding direct exposure to fluorescent light (24 hour photoperiod) to prevent trapping of heat inside the bags. Mortality and reduced feeding were assessed 4 days after treatment, compared to untreated control plants.

[2] = system: Tobacco budworm (Heliothis virescens); experiment: Tobacco budworm insect diet microtiter test (B.10); conditions: 120 h, test concentration 800 ppm, egg and larval mortality on insect diet, 5 days
Description: B.10 Tobacco budworm (Heliothis virescens)
(§1) For evaluating control of tobacco budworm (Heliothis virescens) the test unit consists of 96-well-microtiter plates containing an insect diet and 15-25 H. virescens eggs. The compounds were formulated using a solution containing 75% v/v water and 25% v/v DMSO. Different concentrations of formulated compounds were sprayed onto the insect diet at 10 μl, using a custom built micro atomizer, at two replications. After application, microtiter plates were incubated at about 28±1° C. and about 80±5% relative humidity for 5 days. Egg and larval mortality was then visually assessed.

[3] = system: Mediterranean fruitfly (Ceratitis capitata); experiment: Mediterranean fruitfly insect diet microtiter test (B.9); conditions: 120 h, test concentration 800 ppm, egg and larval mortality on insect diet, 5 days
Description: B. 9 Mediterranean fruitfly (Ceratitis capitata)
as §1, with “Mediterranean fruitfly (Ceratitis capitata)” for “tobacco budworm (Heliothis virescens)”, “consisted” for “consists”, “microtiter” for “96-well-microtiter”, “50-80 C. capitata” for “15-25 H. virescens”, “5” for “10”

[4] = system: Diamondback moth (Plutella xylostella); experiment: Diamondback moth leaf-dip test on Chinese cabbage (B.4); conditions: test concentration 500 ppm, dipped Chinese cabbage leaves, mortality recorded 24, 72 and 120 hours after treatment, read-out: mortality in comparison with untreated controls
Description: B.4 Diamondback moth (Plutella xylostella)
The active compound was dissolved at the desired concentration in a mixture of 1:1 (vol:vol) distilled water:acetone. The test solution was prepared at the day of use.
The activity against Plutella xylostella can be tested by the following experiments:
Leaves of Chinese cabbage were dipped in test solution and air-dried. Treated leaves were placed in petri dished lined with moist filter paper. Mortality was recorded 24, 72, and 120 hours after treatment.

[5] = system: Colorado potato beetle (Leptinotarsa decemlineata, adult); experiment: Colorado potato beetle test on treated eggplant foliage (B.3); conditions: test concentration 300 ppm, assessed 4 days after treatment
Description: B.3 Colorado potato beetle (Leptinotarsa decemlineata, adult)
The active compounds were formulated in cyclohexanone as a 10,0000 ppm solution supplied in 1.3 ml ABgene® tubes. These tubes were inserted into an automated electrostatic sprayer equipped with an atomizing nozzle and they served as stock solutions for which lower dilutions were made in 50% acetone:50% water (v/v). A nonionic surfactant (Kinetic®) was included in the solution at a volume of 0.01% (v/v). Eggplants were grown 2 plants to a pot and were selected for treatment at the 1st true leaf stage. Test solutions were sprayed onto the foliage by an automated electrostatic plant sprayer equipped with an atomizing spray nozzle. The plants were dried in the sprayer fume hood and then removed from the sprayer. The treated foliage was then cut and removed from the pot and placed in a 5-inch Petri dish lined with moistened filter paper. Five beetle larvae were introduced into each Petri dish and the dish was covered by a Petri dish lid. Petri dishes were maintained in a growth room at 25° C. and 20-40% relative humidity for 4 days, avoiding direct exposure to fluorescent light (24 hour photoperiod) to prevent trapping of heat inside the dishes. Mortality and reduced feeding were assessed 4 days after treatment, compared to untreated control plants.

Structure (SMILES) | mortality at 300 ppm [1] [%] | mortality at 800 ppm [2] [%] | mortality at 800 ppm [3] [%] | mortality at 500 ppm [4] [%] | mortality in comparison with untreated controls [5]
CCNc1nc(-c2ccc(Cl)cc2)nc2cc(C(F)(F)F)ccc12 [I-99, [2-(4-Chloro-phenyl)-7-trifluoromethyl-quinazolin-4-yl]ethylamine] | ≥ 50 | ≥ 50 | ≥ 50 | ≥ 50 | –
CCNc1nc(-c2ccc(F)cc2)nc2cc(C(F)(F)F)ccc12 [I-201] | – | – | – | – | at least 50%
CCNc1nc(-c2ccc(C(F)(F)F)cc2)nc2cc(C(F)(F)F)ccc12 [I-209, [2-(4-Trifluoromethylphenyl)-7-trifluoromethyl-quinazolin-4-yl]ethylamine] | – | ≥ 50 | ≥ 50 | ≥ 50 | –
